# Experimental data taken from US12653860B2, “Compositions and methods for editing beta-globin for treatment of hemaglobinopathies” (Vertex Pharmaceuticals Incorporated, priority 2019, dated 2026).
# Columns and labels:
# [1] = system: GFP gene encoded in the AAVS1 locus of HEK293 T cells; assay: Indel formation by TIDE analysis, GFP to BFP edit; format: cell-based; conditions: regardless of ssODN or gRNA; vs DMSO control; FIGS. 2C-2D
# Experimental: (§1) The effect of DNA PK inhibition by Nu7441 correction of a DSB by the NHEJ pathway (e.g., introduce an indel at the DSB site) or HDR pathway (e.g., introduce a gene mutation encoded by a homology donor at the DSB site) was assessed using the reporter system described in Example 1. In this case gene-editing was evaluated in HEK293 T cells expressing GFP in the AAVS1 locus. To introduce a gene edit that converts GFP to BFP, cells were electroporated with ribonucleoprotein (RNP) comprised of Cas9 and gRNA1 (GFP target sequence identified by SEQ ID NO: 9; sgRNA spacer sequence identified by SEQ ID NO: 10) or gRNA2 (GFP target sequence identified by SEQ ID NO: 11; sgRNA spacer identified by SEQ ID NO: 12) that targets the GFP gene encoded in the AAVS1 locus. The cells were also transfected with ssODNs that encoded the gene correction necessary to convert GFP to BFP and homology arms complimentary to the sequence upstream and downstream of the target gene cut site. The efficiency of HDR repair was determined by measuring the level of cell BFP fluorescence. The efficiency of cutting (indel information) was monitored by TIDE analysis.
# Shown in FIGS. 2C-2D is a measure of indel formation performed by TIDE analysis for the same edits that are described for FIGS. 2A-2B. […] Thus, the DNA PK inhibitor Nu7441 achieves reduced repair of a DSB by the NHEJ pathway when a homology donor is provided.
# [2] = system: GSD1a locus in HEK293 T cells; assay: HDR editing of GSD1a locus with ssODN homology donors; format: cell-based; conditions: FIG. 3; for HDR efficiency: 1.25 μM SCR7 or 10 μM RS-1
# Experimental: 2×10^5 cells were edited with 1 μM Cas9 and 1.5 μM gRNA. The cells were transfected with two different ssODNs homology donors: 93-50 (SEQ ID NO: 39) or 25-100 (SEQ ID NO: 40). These two ssODN donors contain homology arms spanning both sides of the double-stranded break induced by the Cas9-guide and facilitate correction of a point mutation in the G6PC gene sequence by HDR. Cells were edited with 100 μM ssODN. The cells were treated with 2.5 μM Nu7441, 1.25 μM SCR7, or 10 μM RS-1 and the effect on HDR efficiency was evaluated.
# [3] = system: GSD1a locus in HEK293 T cells; assay: Gene correction by NHEJ repair at GSD1a locus with dsDNA donors; format: cell-based; conditions: dsDNA donors 50-0 or 150-0; 2.5 μM Nu7441, 1.25 μM SCR7 or 10 μM RS-1; vs DMSO alone; FIG. 3
# Experimental: The effect of Nu7441 treatment on gene correction by the NHEJ pathway was also evaluated. To do so, the cells were transfected with two different dsDNA donors: 50-0 (SEQ ID NO: 37) or 150-0 (SEQ ID NO: 38). Cells were edited with 1.5 g dsDNA donor. These dsDNA donors, lacking homology arms, introduce a second 3′ splice site into exon 2 at the GSD1a locus when inserted into the cut site induced by the Cas9-guide complex by NHEJ repair. The cells were treated with 2.5 μM Nu7441, 1.25 μM SCR7, or 10 μM RS-1 and gene correction by NHEJ repair was evaluated. […] Treatment with SCR7 or RS-1 had no effect over DMSO alone.
# [4] = system: GFP gene encoded in the AAVS1 locus of HEK293 T cells; assay: GFP to BFP reporter assay of HDR repair (BFP fluorescence); format: cell-based; conditions: four ssODNs
# Experimental: as §1
# Shown in FIGS. 2A-2B is a comparison of HDR editing efficiency for cells treated with Nu7441, SCR7, or RS-1. Shown in FIG. 2A are cells were electroporated with RNP comprising Cas9 and gRNA1 (GFP target sequence shown in SEQ ID NO: 9; sgRNA spacer sequence identified by SEQ ID NO: 10). 2×10^5 cells were edited with 1 μM Cas9 and 1.5 μM gRNA1. The cells were transfected with four different ssODNs. These included ssODN 1067 (SEQ ID NO: 29) and ssODN 1069 (SEQ ID NO: 31) that are complimentary to the DNA strand containing the PAM sequence and ssODN 1068 (SEQ ID NO: 30) and ssODN 1070 (SEQ ID NO: 32) that are complimentary to the DNA strand not containing the PAM sequence. Cells were edited with 100 μM ssODN. A concentrated stock solution of each inhibitor was prepared in DMSO and diluted to a final concentration of 2.5 μM Nu7441, 1.25 μM SCR7, or 10 μM RS-1. HDR efficiency was compared relative to treatment with DMSO alone or to treatment with RNP-only.
# Shown in FIG. 2B are cells were electroporated with RNP comprising Cas9 and gRNA2 (GFP target sequence shown in SEQ ID NO: 11; sgRNA spacer sequence shown in SEQ ID NO: 12). The cells were transfected with four different ssODNs. These included ssODN 1061 (SEQ ID NO: 33) and ssODN 1063 (SEQ ID NO: 35) that are complimentary to the DNA strand containing the PAM sequence and ssODN 1062 (SEQ ID NO: 34) and ssODN 1064 (SEQ ID NO: 36) that are complimentary to the DNA strand not containing the PAM sequence.
# HBB locus = assay: HDR (E7V) editing in mouse bone marrow 16 weeks post-administration, NGS; format: in vivo, mice; conditions: for levels of gene-editing in the HBB locus in bone marrow: AAV.304, FIG. 26B
# Experimental: Maintenance of gene-editing was evaluated in mouse bone marrow collected at 16 weeks post-administration of LT-HSPCs. Incorporation of a sickle mutation (E7V) in the HBB locus was evaluated in DNA isolated from mouse bone marrow samples using the next generation sequencing assay described in Example 4. Shown in FIG. 19 is a comparison of HDR efficiency for LT-HSPCs edited either with or without i53. LT-HSPCs were electroporated with Cas9/gRNA and treated with AAV. […] LT-HSPCs edited in the presence of i53 had 1.8-fold higher HDR frequency in the bone marrow compared to cells edited with AAV+RNP alone.
# Maintenance of gene-editing was evaluated in mouse bone marrow collected at 16 weeks post-administration of LT-HSPCs. Incorporation of a sickle mutation (E7V) in the HBB locus was evaluated in DNA isolated from mouse bone marrow samples using the next generation sequencing assay described in Example 4. […] LT-HSPCs were electroporated with Cas9/gRNA and treated with AAV prior to electroporation or following electroporation. Incorporation of the gene-edit in bone marrow samples was similar for LT-HSPCs edited with RNP and AAV given either pre-EP or post-EP. Additionally, incorporation of the gene edit in the HBB locus by HDR was compared for LT-HSPCs edited in the presence of i53 or Nu7441 (FIG. 26B).
# [5] = gRNA1, 2.5 μM Nu7441, 1.25 μM SCR7 or 10 μM RS-1, vs DMSO alone, FIG. 2A
Molecule,indel formation at the DSB site [1],"HDR efficiency, fold increase over DMSO alone ([2]; 2.5 μM Nu7441, ssODN 93-50 or 25-100)",gene correction by NHEJ repair [3],"HDR efficiency [4, 5]","HDR efficiency ([4]; gRNA2, 2.5 μM Nu7441)",levels of gene-editing in the HBB locus in bone marrow (HBB locus),HDR efficiency [2],"HDR frequency in bone marrow, fold higher than AAV+RNP alone (HBB locus; AAV.307, FIG. 19) [fold]","incorporation of the gene edit by HDR in bone marrow (HBB locus; AAV.307, i53, FIG. 19) [%]"
O=c1cc(N2CCOCC2)oc2c(-c3cccc4c3sc3ccccc34)cccc12 [Nu7441],decreased indel formation,approximately 1.7 fold,substantial decrease in gene correction,improved HDR efficiency,improved HDR efficiency,comparable to AAV+RNP alone,,,
O=C(Nc1ccc(Br)cc1)c1ccc(Br)c(S(=O)(=O)NCc2ccccc2)c1 [RS-1],reduction compared to a DMSO control,,no effect,no improvement in HDR efficiency,,,no effect,,
O=c1[nH]c(=S)[nH]c(N=Cc2ccccc2)c1N=Cc1ccccc1 [SCR7],reduction compared to a DMSO control,,no effect,no improvement in HDR efficiency,,,no effect,,
"i53: polypeptide inhibitor of 53BP1 (SEQ ID NO: 70), delivered as mRNA (ORF SEQ ID NO: 69)",,,,,,substantially higher than AAV+RNP alone,,1.8,65
